Common to all, as to experiment: FDH-coupled fluorescent demethylase assay, initial velocities, Hill fit
Assay type in all cases: biochemical

One assay concerns the target T1, Gis1 (Saccharomyces cerevisiae, UniProt Q03833).
T1 construct: full-length, N-terminal Strep(II) tag (pET51b+), expressed in E. coli BL21 Star (DE3), codon-optimized
T1 sequence (Q03833 1-894): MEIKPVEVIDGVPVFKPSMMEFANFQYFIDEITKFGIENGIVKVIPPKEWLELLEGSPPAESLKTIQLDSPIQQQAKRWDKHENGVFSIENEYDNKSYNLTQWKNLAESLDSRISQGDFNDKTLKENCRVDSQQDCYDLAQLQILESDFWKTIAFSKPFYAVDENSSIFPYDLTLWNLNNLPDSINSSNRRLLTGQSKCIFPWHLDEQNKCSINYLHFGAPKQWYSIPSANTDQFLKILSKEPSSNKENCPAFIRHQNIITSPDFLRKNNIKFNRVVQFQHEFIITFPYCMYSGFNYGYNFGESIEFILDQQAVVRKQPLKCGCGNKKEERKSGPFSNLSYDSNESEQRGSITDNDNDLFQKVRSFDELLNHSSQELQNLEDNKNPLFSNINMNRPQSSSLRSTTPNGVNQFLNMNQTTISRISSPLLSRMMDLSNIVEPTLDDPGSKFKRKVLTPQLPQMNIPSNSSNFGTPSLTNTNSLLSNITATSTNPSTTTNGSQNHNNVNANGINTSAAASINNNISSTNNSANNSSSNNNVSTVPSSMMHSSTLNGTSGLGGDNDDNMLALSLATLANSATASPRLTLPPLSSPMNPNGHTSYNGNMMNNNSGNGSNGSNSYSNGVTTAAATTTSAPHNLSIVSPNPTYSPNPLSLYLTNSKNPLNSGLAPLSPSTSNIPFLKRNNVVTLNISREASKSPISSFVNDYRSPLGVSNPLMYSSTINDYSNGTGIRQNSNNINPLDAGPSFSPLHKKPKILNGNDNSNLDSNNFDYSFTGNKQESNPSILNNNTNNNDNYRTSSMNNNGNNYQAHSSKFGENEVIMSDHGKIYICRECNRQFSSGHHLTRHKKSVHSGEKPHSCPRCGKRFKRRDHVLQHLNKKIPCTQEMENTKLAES

For another assay, the target named is T2, Rph1 (Saccharomyces cerevisiae, UniProt P39956).
T2 construct: full-length, N-terminal Strep(II) tag (pET51b+), expressed in E. coli BL21 Star (DE3), codon-optimized

In a further assay the target is T3, Jhd2 (Saccharomyces cerevisiae, UniProt P47156).
T3 construct: full-length, N-terminal Strep(II) tag (pET51b+), expressed in E. coli BL21 Star (DE3), codon-optimized
T3 sequence (P47156 1-728): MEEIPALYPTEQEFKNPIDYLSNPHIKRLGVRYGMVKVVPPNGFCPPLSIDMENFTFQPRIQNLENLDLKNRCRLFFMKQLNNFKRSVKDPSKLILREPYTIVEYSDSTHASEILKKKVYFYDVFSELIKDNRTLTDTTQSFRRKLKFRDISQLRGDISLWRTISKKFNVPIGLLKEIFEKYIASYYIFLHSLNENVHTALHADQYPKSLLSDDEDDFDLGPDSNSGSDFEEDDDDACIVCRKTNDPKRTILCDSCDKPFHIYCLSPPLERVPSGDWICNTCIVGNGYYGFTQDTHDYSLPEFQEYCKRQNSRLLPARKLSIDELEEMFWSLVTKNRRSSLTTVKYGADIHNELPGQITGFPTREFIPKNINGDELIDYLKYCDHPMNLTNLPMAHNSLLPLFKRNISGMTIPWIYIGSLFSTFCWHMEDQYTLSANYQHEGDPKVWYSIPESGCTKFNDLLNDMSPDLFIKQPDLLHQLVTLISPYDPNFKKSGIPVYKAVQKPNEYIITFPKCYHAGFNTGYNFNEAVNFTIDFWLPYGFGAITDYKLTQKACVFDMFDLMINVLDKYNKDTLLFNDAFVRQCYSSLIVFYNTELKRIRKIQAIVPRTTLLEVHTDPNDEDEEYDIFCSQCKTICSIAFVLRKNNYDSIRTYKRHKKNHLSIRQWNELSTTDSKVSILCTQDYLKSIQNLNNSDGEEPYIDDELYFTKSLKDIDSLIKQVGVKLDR

In the next assay the target is T4, Jhd1 (Saccharomyces cerevisiae, UniProt P40034).
T4 construct: full-length, N-terminal Strep(II) tag (pET51b+), expressed in E. coli BL21 Star (DE3), codon-optimized
T4 sequence (P40034 1-492): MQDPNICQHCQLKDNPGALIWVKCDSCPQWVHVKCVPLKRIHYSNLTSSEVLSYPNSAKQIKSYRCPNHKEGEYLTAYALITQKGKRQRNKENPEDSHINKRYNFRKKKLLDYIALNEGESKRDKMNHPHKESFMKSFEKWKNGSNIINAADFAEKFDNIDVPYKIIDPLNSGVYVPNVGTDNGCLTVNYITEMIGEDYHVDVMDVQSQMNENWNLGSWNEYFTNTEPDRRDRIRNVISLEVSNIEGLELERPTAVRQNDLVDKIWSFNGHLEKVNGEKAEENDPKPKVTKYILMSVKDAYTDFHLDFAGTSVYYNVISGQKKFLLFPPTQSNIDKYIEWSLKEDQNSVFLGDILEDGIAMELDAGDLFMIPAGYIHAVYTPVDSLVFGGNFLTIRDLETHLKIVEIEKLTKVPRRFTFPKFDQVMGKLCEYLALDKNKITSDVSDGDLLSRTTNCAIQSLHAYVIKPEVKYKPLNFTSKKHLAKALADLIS

T2 sequence (P39956 whole entry): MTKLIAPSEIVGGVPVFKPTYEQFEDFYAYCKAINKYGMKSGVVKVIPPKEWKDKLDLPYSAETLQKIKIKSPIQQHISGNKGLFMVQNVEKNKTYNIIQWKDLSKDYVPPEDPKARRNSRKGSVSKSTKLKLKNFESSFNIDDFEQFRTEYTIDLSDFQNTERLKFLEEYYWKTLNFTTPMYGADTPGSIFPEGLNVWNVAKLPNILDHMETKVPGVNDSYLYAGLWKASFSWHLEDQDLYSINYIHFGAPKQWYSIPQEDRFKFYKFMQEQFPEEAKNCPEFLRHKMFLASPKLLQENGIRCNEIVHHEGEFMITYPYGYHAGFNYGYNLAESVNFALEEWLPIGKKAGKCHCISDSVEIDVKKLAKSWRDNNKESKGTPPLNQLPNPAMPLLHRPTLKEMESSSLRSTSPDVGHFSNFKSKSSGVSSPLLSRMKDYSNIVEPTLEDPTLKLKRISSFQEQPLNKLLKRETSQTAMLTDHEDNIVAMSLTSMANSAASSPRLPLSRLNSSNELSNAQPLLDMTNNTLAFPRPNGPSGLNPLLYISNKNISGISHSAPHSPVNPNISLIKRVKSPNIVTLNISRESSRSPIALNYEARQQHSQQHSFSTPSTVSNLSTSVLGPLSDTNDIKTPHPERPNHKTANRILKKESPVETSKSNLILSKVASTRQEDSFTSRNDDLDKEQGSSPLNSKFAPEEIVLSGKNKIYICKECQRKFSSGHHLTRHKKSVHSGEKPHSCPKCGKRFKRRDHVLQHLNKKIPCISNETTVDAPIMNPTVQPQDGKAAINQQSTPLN

In the case of `O=C(O)CC[C@@H](O)C(=O)O` [2-HG], the IC50 (commonly the concentration that gives 50% inhibition) against Gis1 is approximately 3100 µM; against Rph1 it was approximately 1300 µM; on Jhd2, approximately 2200 µM; against Jhd1, approximately 2000 µM.

(Values after PMC10681907, “2-Hydroxyglutarate modulates histone methylation at specific loci and alters gene expression via Rph1 inhibition” (Life Science Alliance, 2023).)
